Measured values as given in PMC11943294, “Identification of Key Active Constituents in Eucommia ulmoides Oliv. Leaves Against Parkinson’s Disease and the Alleviative Effects via 4E-BP1 Up-Regulation” (International Journal of Molecular Sciences, 2025).

Columns and labels:
4E-BP1 [1] = target: T1, 4E-BP1 (Homo sapiens, UniProt Q13541); experiment: SPR (BIAcore T200, CM5 chip, immobilized 4E-BP1, […] Langmuir); type: binding
T1 construct: gene EIF4EBP1; amine-coupled to CM5 chip; PDB 2JGB used for docking only

4E-BP1 [2] = target: T1, 4E-BP1; experiment: as above; conditions: 25 °C; 0-125 μM analyte; unreliable (discussion b43 prints another KD, 3.75 × 10^−5 M, and a negative deviation of the binding curve)

T1 sequence (Q13541 2-118): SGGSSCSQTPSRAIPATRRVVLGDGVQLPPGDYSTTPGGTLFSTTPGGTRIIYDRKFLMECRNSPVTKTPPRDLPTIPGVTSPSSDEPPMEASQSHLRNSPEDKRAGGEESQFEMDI

Kd (4E-BP1 [1]) [µM]	KD (4E-BP1 [2]) [µM]	Compound
12.9		O=C(O)/C=C/c1ccc(O)c(O)c1 [caffeic acid]
55.6		O=C(/C=C/c1ccc(O)c(O)c1)O[C@@H]1C[C@](O)(C(=O)O)C[C@@H](O)[C@H]1O [chlorogenic acid]
	4.469	O=C(/C=C/c1ccc(O)c(O)c1)O[C@H]1[C@H](O)C[C@](O)(C(=O)O)C[C@H]1O [cryptochlorogenic acid]
